# From EP2459551B1, “DIHYDROBENZOINDAZOLES” (Merck Sharp & Dohme B.V., priority 2009, dated 2011)
# Molecular target: T1, human FSH receptor (Homo sapiens, UniProt P23945)
# T1 sequence (P23945 18-695): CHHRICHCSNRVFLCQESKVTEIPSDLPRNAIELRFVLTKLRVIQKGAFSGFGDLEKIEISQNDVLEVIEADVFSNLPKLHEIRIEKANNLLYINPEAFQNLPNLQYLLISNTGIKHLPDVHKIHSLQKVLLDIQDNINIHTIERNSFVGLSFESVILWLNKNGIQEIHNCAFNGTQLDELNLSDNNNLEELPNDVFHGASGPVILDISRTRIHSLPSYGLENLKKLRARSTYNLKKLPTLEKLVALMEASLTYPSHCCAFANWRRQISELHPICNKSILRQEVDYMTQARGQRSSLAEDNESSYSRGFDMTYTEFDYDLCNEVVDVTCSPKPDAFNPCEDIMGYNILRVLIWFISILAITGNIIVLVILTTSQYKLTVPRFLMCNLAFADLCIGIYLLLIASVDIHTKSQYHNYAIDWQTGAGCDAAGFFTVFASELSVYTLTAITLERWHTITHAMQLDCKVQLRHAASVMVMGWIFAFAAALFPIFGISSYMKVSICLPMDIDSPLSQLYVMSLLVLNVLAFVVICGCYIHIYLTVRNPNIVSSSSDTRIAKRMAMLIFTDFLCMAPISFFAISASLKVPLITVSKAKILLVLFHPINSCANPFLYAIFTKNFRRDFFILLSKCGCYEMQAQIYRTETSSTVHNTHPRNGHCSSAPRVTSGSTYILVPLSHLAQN
# Protocol: Agonistic activity of compounds at the human FSH receptor expressed in CHO cells
# Agonistic activity of the compounds at the human FSH receptor was determined in Chinese Hamster Ovary (CHO) cells stably transfected with the human FSH receptor and cotransfected with a cAMP responsive element (CRE)/promotor directing the expression of a firefly luciferase reporter gene. […] Cells (7,500 cells/well of a 384 well plate) were incubated in Dulbecco' minimal essential F12 modified medium (Invitrogen), supplemented with 1 µg/ml bovine insulin, 5 µg/ml human apotransferrin, 80 U/ml penicillin G and 80 µg/ml streptomycin with the test compounds (concentration between 0.0316 nM and 10.0 µM) in duplicate in a humidified atmosphere (95%) at 5-7% CO2 and 37°C. The final concentration of DMSO was 1%. After 4 hours of incubation, plates were allowed to adjust to room temperature for 1 hour. Then, Luclite (PerkinElmer) solution was added to the wells and cells were allowed to lyse for at least 1 hour at room temperature. Subsequently, luciferase activity was measured in a luminescence counter. The signal is expressed as counts per second (cps). The EC50 (concentration of the test compound that elicits half-maximal (50 %) luciferase stimulation compared to the compound's maximally attainable effect) and efficacy values (maximal effect of the test compound as percentage of the maximal effect of recombinant human FSH) of the compounds were determined using the software program MathIQ (version 2.0, ID Business Solutions Limited).
# 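Also: CHO cells stably expressing human FSH receptor with CRE-driven firefly luciferase, luminescence read as counts per second after 4 h compound exposure in 1% DMSO.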
row,SMILES,EC50
1,COc1cc2c(cc1OC)-c1c(c(C(=O)N3CCCN(C(C)=O)CC3)nn1-c1ccc(F)cc1)CC2 [Example 1f],1000 to 10000 nM
2,COc1cc2c(cc1OC)-c1c(c(C(=O)N3CCCN(C(=O)C4CCC4)CC3)nn1-c1ccc(F)cc1)CC2 [Example 1g],100 to 1000 nM
3,"C=Cc1cccc(-n2nc(C(=O)N(C)C(C)(C)C)c3c2-c2cc(OC(C)C)c(OC)cc2CC3)c1 [Example 7cc, N-tert-butyl-8-isopropoxy-7-methoxy-N-methyl-1-(3-vinylphenyl)-4,5-dihydro-1H-benzo[g]indazole-3-carboxamide]",100 to 1000 nM
4,"CCc1cccc(-n2nc(C(=O)N(C)C(C)(C)C)c3c2-c2cc(OC(C)C)c(OC)cc2CC3)c1 [Example 7cd, N-tert-butyl-1-(3-ethylphenyl)-8-isopropoxy-7-methoxy-N-methyl-4,5-dihydro-1H-benzo[g]indazole-3-carboxamide]",100 to 1000 nM
5,"COc1cc2c(cc1OC(C)C)-c1c(c(C(=O)N(C)C(C)(C)C)nn1-c1cccc(F)c1)CC2 [Example 8cb, N-tert-butyl-1-(3-fluorophenyl)-8-isopropoxy-7-methoxy-N-methyl-4,5-dihydro-1H-benzo[g]indazole-3-carboxamide]",100 to 1000 nM
6,"COc1cc2c(cc1OC(C)C)-c1c(c(C(=O)N(C)C(C)(C)C)nn1-c1cccc(C)c1)CC2 [Example 8cd, N-tert-butyl-8-isopropoxy-7-methoxy-N-methyl-1-m-tolyl-4,5-dihydro-1H-benzo[g]indazole-3-carboxamide]",100 to 1000 nM
7,"COc1cc2c(cc1OC(C)C)-c1c(c(C(=O)N(C)C(C)(C)C)nn1-c1ccccc1Br)CC2 [Example 9ca, 1-(2-bromophenyl)-N-tert-butyl-8-isopropoxy-7-methoxy-N-methyl-4,5-dihydro-1H-benzo[g]indazole-3-carboxamide]",100 to 1000 nM
8,"CC=Cc1ccccc1-n1nc(C(=O)N(C)C(C)(C)C)c2c1-c1cc(OC(C)C)c(OC)cc1CC2 [Example 9cb, 1-(2-(2-methylvinyl)-phenyl)-N-tert-butyl-8-isopropoxy-7-methoxy-N-methyl-4,5-dihydro-1H-benzo[g]indazole-3-carboxamide]",1000 to 10000 nM
9,"C=Cc1ccccc1-n1nc(C(=O)N(C)C(C)(C)C)c2c1-c1cc(OC(C)C)c(OC)cc1CC2 [Example 9cc, N-tert-butyl-8-isopropoxy-7-methoxy-N-methyl-1-(2-vinylphenyl)-4,5-dihydro-1H-benzo[g]indazole-3-carboxamide]",1000 to 10000 nM
10,"COc1cc2c(cc1OC(C)C)-c1c(c(C(=O)N(C)C(C)(C)C)nn1-c1ccccc1-c1ccoc1)CC2 [Example 9cd, N-tert-butyl-1-(2-(furan-3-yl)phenyl)-8-isopropoxy-7-methoxy-N-methyl-4,5-dihydro-1H-benzo[g]indazole-3-carboxamide]",1000 to 10000 nM
11,"COc1cc2c(cc1OC(C)C)-c1c(c(C(=O)N(C)C(C)(C)C)nn1-c1ccccc1F)CC2 [Example 10cb, N-tert-butyl-1-(2-fluorophenyl)-8-isopropoxy-7-methoxy-N-methyl-4,5-dihydro-1H-benzo[g]indazole-3-carboxamide]",100 to 1000 nM
12,"COc1cc2c(cc1OC(C)C)-c1c(c(C(=O)N(C)C(C)(C)C)nn1-c1ccccc1OC)CC2 [Example 10cc, N-tert-butyl-8-isopropoxy-7-methoxy-1-(2-methoxyphenyl)-N-methyl-4,5-dihydro-1H-benzo[g]indazole-3-carboxamide]",1000 to 10000 nM
13,"COc1cc2c(cc1-c1ncco1)-c1c(c(C(=O)N(C)C(C)(C)C)nn1-c1ccccc1Cl)CC2 [Example 11ga, N-tert-butyl-1-(2-chlorophenyl)-7-methoxy-N-methyl-8-(oxazol-2-yl)-4,5-dihydro-1H-benzo[g]lindazole-3-carboxamide]",1000 to 10000 nM
14,COc1cc2c(cc1NC(=O)c1cocn1)-c1c(c(C(=O)N(C)C(C)(C)C)nn1-c1cccc(C)c1)CC2 [Example 12g],1000 to 10000 nM
15,COc1cc2c(cc1NS(C)(=O)=O)-c1c(c(C(=O)N(C)C(C)(C)C)nn1-c1cccc(C)c1)CC2 [Example 12h],1000 to 10000 nM
16,"COc1cc2c(cc1NC(=O)CN1CCOCC1)-c1c(c(C(=O)N(C)C(C)(C)C)nn1-c1cccc(C)c1)CC2 [Example 12jb, N-tert-butyl-7-methoxy-N-methyl-8-(2-morpholinoacetamido)-1-m-tolyl-4,5-dihydro-1H-benzo[g]indazole-3-carboxamide]",1000 to 10000 nM
17,"COc1cc2c(cc1NC(=O)CN(C)C)-c1c(c(C(=O)N(C)C(C)(C)C)nn1-c1cccc(C)c1)CC2 [Example 12jc, N-tert-butyl-8-(2-(dimethylamino)acetamido)-7-methoxy-N-methyl-1-m-tolyl-4,5-dihydro-1H-benzo[g]indazole-3-carboxamide]",1000 to 10000 nM
18,"COc1ccc(-n2nc(C(=O)N(C)C(C)(C)C)c3c2-c2cc(OC(C)C)c(OC)cc2CC3)cc1 [Example 13cc, N-tert-butyl-8-isopropoxy-7-methoxy-1-(4-methoxyphenyl)-N-methyl-4,5-dihydro-1H-benzo[g]indazole-3-carboxamide]",1000 to 10000 nM

# The next lines start with the values.
row,EC50,SMILES
1,1000 to 10000 nM,"COc1cc2c(cc1OC)-c1c(c(C(=O)N(C)C(C)(C)C)nn1-c1ccc(F)cc1)CC2 [Example 1e, N-tert-butyl-1-(4-fluorophenyl)-7,8-dimethoxy-N-methyl-4,5-dihydro-1H-benzo[g]indazole-3-carboxamide]"
2,1000 to 10000 nM,"COc1cc2c(cc1OC(C)C)-c1c(c(C(=O)N(C)C(C)(C)C)nn1-c1nc3ccccc3s1)CC2 [Example 4d, 1-(benzo[d]thiazol-2-yl)-N-tert-butyl-8-isopropoxy-7-methoxy-N-methyl-4,5-dihydro-1H-benzo[g]indazole-3-carboxamide]"
3,100 to 1000 nM,"COc1cc2c(cc1OC(C)C)-c1c(c(C(=O)N(C)C(C)(C)C)nn1-c1cccnc1)CC2 [Example 6b, N-tert-butyl-8-isopropoxy-7-methoxy-N-methyl-1-(pyridin-3-yl)-4,5-dihydro-1H-benzo[g]indazole-3-carboxamide]"
4,1000 to 10000 nM,"C=CCc1cccc(-n2nc(C(=O)N(C)C(C)(C)C)c3c2-c2cc(OC(C)C)c(OC)cc2CC3)c1 [Example 7ca, 1-(3-allylphenyl)-N-tert-butyl-8-isopropoxy-7-methoxy-N-methyl-4,5-dihydro-1H-benzo[g]indazole-3-carboxamide]"
5,1000 to 10000 nM,"C=C(C)c1cccc(-n2nc(C(=O)N(C)C(C)(C)C)c3c2-c2cc(OC(C)C)c(OC)cc2CC3)c1 [Example 7cb, N-tert-butyl-8-isopropoxy-7-methoxy-N-methyl-1-(3-(prop-1-en-2-yl)phenyl)-4,5-dihydro-1H-benzo[g]indazole-3-carboxamide]"
6,100 to 1000 nM,"COc1cc2c(cc1OC(C)C)-c1c(c(C(=O)N(C)C(C)(C)C)nn1-c1cccc(C3CC3)c1)CC2 [Example 7cf, N-tert-butyl-1-(3-cyclopropylphenyl)-8-isopropoxy-7-methoxy-N-methyl-4,5-dihydro-1H-benzo[g]indazole-3-carboxamide]"
7,1000 to 10000 nM,"COc1cc2c(cc1OC(C)C)-c1c(c(C(=O)N(C)C(C)(C)C)nn1-c1cccc([N+](=O)[O-])c1)CC2 [Example 8ca, N-tert-butyl-8-isopropoxy-7-methoxy-N-methyl-1-(3-nitrophenyl)-4,5-dihydro-1H-benzo[g]indazole-3-carboxamide]"
8,100 to 1000 nM,"COc1cccc(-n2nc(C(=O)N(C)C(C)(C)C)c3c2-c2cc(OC(C)C)c(OC)cc2CC3)c1 [Example 8cc, N-tert-butyl-8-isopropoxy-7-methoxy-1-(3-methoxyphenyl)-N-methyl-4,5-dihydro-1H-benzo[g]indazole-3-carboxamide]"
9,1000 to 10000 nM,"COc1cc2c(cc1OC(C)C)-c1c(c(C(=O)N(C)C(C)(C)C)nn1-c1ccccc1C)CC2 [Example 10ca, N-tert-butyl-8-isopropoxy-7-methoxy-N-methyl-1-o-tolyl-4,5-dihydro-1H-benzo[g]lindazole-3-carboxamide]"
10,1000 to 10000 nM,"COc1cc2c(cc1NC(=O)CN1CCN(C)CC1)-c1c(c(C(=O)N(C)C(C)(C)C)nn1-c1cccc(C)c1)CC2 [Example 12ja, N-tert-butyl-7-methoxy-N-methyl-8-(2-(4-methylpiperazin-1-yl)acetamido)-1-m-tolyl-4,5-dihydro-1H-benzo[g]indazole-3-carboxamide]"
11,1000 to 10000 nM,"COc1cc2c(cc1NC(=O)CN1CCC1)-c1c(c(C(=O)N(C)C(C)(C)C)nn1-c1cccc(C)c1)CC2 [Example 12jd, 8-(2-(azetidin-1-yl)acetamido)-N-tert-butyl-7-methoxy-N-methyl-1-m-tolyl-4,5-dihydro-1H-benzo[g]indazole-3-carboxamide]"
12,1000 to 10000 nM,"COc1cc2c(cc1OC(C)C)-c1c(c(C(=O)N(C)C(C)(C)C)nn1-c1ccc(C)cc1)CC2 [Example 13ca, N-tert-butyl-8-isopropoxy-7-methoxy-N-methyl-1-p-tolyl-4,5-dihydro-1H-benzo[g]indazole-3-carboxamide]"
13,1000 to 10000 nM,"CCc1ccc(-n2nc(C(=O)N(C)C(C)(C)C)c3c2-c2cc(OC(C)C)c(OC)cc2CC3)cc1 [Example 13cb, N-tert-butyl-1-(4-ethylphenyl)-8-isopropoxy-7-methoxy-N-methyl-4,5-dihydro-1H-benzo[g]lindazole-3-carboxamide]"
